Measured values taken from US5312817A, “Treatment of fatigue syndrome” (priority 1991, dated 1994).
Counter-ions that a name gives are not always drawn. Like-named read-outs stand apart in the source and are kept apart here.

How the values were obtained:
[1] = test system: cholinesterase in hemolyzed whole blood (hemolysate); experiment: Sigma Diagnostics Cholinesterase (PTC) kit, hemolysate of patient blood samples; format: biochemical, human; conditions: for Hemolysate ChE activity: no addition = 1.00, blood samples from 3 patients
Description: (§1) HChE=(EChE×Hct*)+(PChE×(1--Hct*))
By doing this, the values are obtained directly.
The results are shown below in table 1.1.

[2] = biological target: butyrylcholinesterase (pseudocholinesterase) in serum (Homo sapiens, UniProt P06276); conditions: for Serum ChE activity: no addition = 1.00, blood samples from 3 patients
Description: SIGMA DIAGNOSTICS® CHOLINESTERASE (PTC) kit, available from Sigma Diagnostics, can be used for determining the activity and selectivity of cholinesterase inhibitors. In the following, it is illustrated how the kit is used for the determination of the activity and selectivity of Nivalin (Galanthamine hydrobromide).
Reactions involved in the cholinesterase assay are as follows: [drawing 3]
Thiocholine+5,5'-Dithiobis-2-Nitrobenzoic Acid→5-Thio-2-NitrobenzoicAcid
5-Thio-2-Nitrobenzoic Acid is assessed by measuring the absorbance at 405 nm. The rate of change in absorbance at 405 nm is directly proportional to cholinesterase activity.
The activity of erythrocyte cholinesterase may be calculated on the basis of the measurement of butyrylcholinesterase (pseudocholinesterase) in serum and cholinesterase in hemolyzed whole blood (hemolysate), both measured simultaneously by the method described above, and evaluated according to the hematocrit value according to the formula
as §1
In the above formulae, EChE is erythrocyte cholinesterase activity, PChE is plasma cholinesterase activity, HChE is hemolysate cholinesterase activity, and Hct is hematocrit value of the sample.
Another way of assessing the cholinesterase activity is to measure the plasma cholinesterase and the cholinesterase in purified hemolyzed erythrocytes. By doing this, the values are obtained directly.
Blood samples from 3 patients were tested with the Sigma test. The tests were carried out with samples where no Nivalin was added and with samples where 1.25 μg/ml Nivalin and 2.5 μg/ml were added in vitro.

[3] = cited from earlier work
[4] = test system: acetylcholinesterase as opposed to butyrylcholinesterase; conditions: cited from earlier work; for selectivity for acetylcholinesterase as opposed to butyrylcholinesterase: in vitro method by Thomsen et al.
[5] = format: physicochemical; conditions: room temperature
Experimental: Galanthamine and its acid addition salts form crystals. […] If necessary, pharmaceutically-acceptable suspension aids may be employed. Typically, such a suspension will be employed at a concentration of 0.1-50 mg/ml, such as 1-50 mg/ml, more commonly 5-40 mg/ml, for example, 5-30 mg/ml or 10-40 mg/ml, such as 10-30 mg/ml, especially 20-30 mg/ml of galanthamine. As mentioned above, typical dosage rates when administering galanthamine by injection are the range 0.01-20 mg per day depending upon the patient. […] In other cases, dosages as low as 5 mg and as high as 200 mg per day may be appropriate for persons in this body weight range.

[6] = Side effects in treated patients; format: in vivo, human
Experimental: A complete elimination of metabolites and galanthamine takes place in 72 hours. […] The common side effects, other than the ones related to cholinergic crisis, are either nausea or vomiting, and a slight headache. However, these side effects are rare, especially when care is taken to start medication in low doses such as mentioned above.
Although galanthamine must be considered as having a high degree of safety, there have been certain side effects in a few of the patients treated. These have been slight nausea in about 30% of the cases (the nausea, however, disappearing after about one week of treatment), vomiting and dizziness in 5-10% of the patients (also disappearing after about one week of treatment in most cases), and more severe side effects in 4-6% of the patients. These more severe side effects must be considered acceptable in view of the effect of the drug; however, in patients who are suspected of developing arrhythmia, it should be considered to administer, e.g., atropine in combination with the treatment according to the invention.

[7] = test system: persons suffering from Chronic Fatigue Syndrome; experiment: Double-blind cross-over trial in Chronic Fatigue Syndrome: patient-completed visual analogue scales; format: in vivo, human; set-up: Sleep Disturbance visual analogue scale, mean / Fatigue visual analogue scale, mean / Myalgia visual analogue scale, mean / Work Capacity/Satisfaction visual analogue scale, mean / Memory visual analogue scale, mean / Dizziness visual analogue scale, mean / Sleep visual analogue scale, mean / Work visual analogue scale, mean: scale not given here
Description: (§2) 20 persons suffering from Chronic Fatigue Syndrome fulfilling the criteria described in example 4 or 5.
(§3) Each patient received treatment for a minimum of 8 weeks. The first 2 weeks incorporated an escalating schedule to stabilise the patient on an appropriate dose. The trial was running for eight weeks.
(§4) 11 of the persons were randomly allocated to galanthamine treatment, and the remaining 9 to placebo treatment. The protocol for the trial made provisions for the clinician to opt after two weeks of treatment for transfer to the alternative treatment.
(§5) The data available for the evaluation covered groups of patient-completed visual analogue scales to assess sleep disturbance, fatigue, myalgia, work capacity/satisfaction, and dizziness, together with time per response on a visual search task.
In order to assess any underlying, overall performance difference between the galanthamine and placebo treated patients, the median (the statistic which differentiates the upper and lower 50% of scores) of the changes across all scales, was computed for the placebo treated patients.

[8] = test system: persons suffering from Chronic Fatigue Syndrome; experiment: Double-blind cross-over trial in Chronic Fatigue Syndrome: clinician's transfer to alternative treatment; format: in vivo, human; conditions: after two weeks of treatment; 9/9 on placebo; exact p=0.00006
Description: as §2, §3, §4

[9] = test system: persons suffering from Chronic Fatigue Syndrome; experiment: Double-blind cross-over trial in Chronic Fatigue Syndrome: visual search task; format: in vivo, human
Description: as §2, §3, §4, §5

[10] = test system: persons suffering from Chronic Fatigue Syndrome; experiment: Double-blind cross-over trial in Chronic Fatigue Syndrome: Cognitive Failures Questionnaire; format: in vivo, human
Description: as §2, §3
11 of the persons were randomly allocated to galanthamine treatment, and the remaining 9 to placebo treatment. The protocol for the trial made provisions for the clinician to opt after two weeks of treatment for transfer to the alternative treatment. […]

[11] = test system: auditory evoked potentials in the brain stem; experiment: Auditory brain stem response; format: in vivo, human
Experimental: The auditory brain stem response test is based on the observation that manio-depressive patients are hypersensitive to cholinergic influences, one manifestation hereof being hypersensitivity to auditory signals as assessed by the increase of amplitude of auditory evoked potentials in the nuclei of the auditory system in the brain stem, i.e. on the "brain side" of the blood brain barrier. […] See also example 3.
Electrical potentials caused by click-stimulation in the ears are measured with electrodes positioned outside on the head of the examined parson. In the configuration of the potentials are components from the brain stem and the brain.
A patient suffering from bipolar manio-depression in the depressive stats and a healthy person, respectively.
Tablet containing 10 mg galanthamine

[12] = test system: acetylcholinesterase in the erythrocytes; conditions: within 2 minutes after 10 mg i.v., healthy volunteer; cited from earlier work
[13] = test system: butyrylcholinesterase in plasma; conditions: after 10 mg i.v., healthy volunteer; cited from earlier work
[14] = use as anticurare agent in anesthesiology in Eastern Block countries since around 1958; cited from earlier work
[15] = all galanthamine treated patients, 1 Week, N = 19
[16] = all galanthamine treated patients, 2 Weeks, N = 19
[17] = all galanthamine treated patients, 4 Weeks, N = 18
[18] = all galanthamine treated patients, 8 Weeks, N = 17
[19] = all galanthamine treated patients, Baseline, N = 19
[20] = randomly allocated to galanthamine (N=11), After 1 Week
[21] = randomly allocated to galanthamine (N=11), After 2 Weeks
[22] = randomly allocated to galanthamine (N=11), Baseline
[23] = 2 hours after 10 mg tablet, treated compared to untreated

Chain of butyrylcholinesterase (pseudocholinesterase) in serum (P06276 29-602): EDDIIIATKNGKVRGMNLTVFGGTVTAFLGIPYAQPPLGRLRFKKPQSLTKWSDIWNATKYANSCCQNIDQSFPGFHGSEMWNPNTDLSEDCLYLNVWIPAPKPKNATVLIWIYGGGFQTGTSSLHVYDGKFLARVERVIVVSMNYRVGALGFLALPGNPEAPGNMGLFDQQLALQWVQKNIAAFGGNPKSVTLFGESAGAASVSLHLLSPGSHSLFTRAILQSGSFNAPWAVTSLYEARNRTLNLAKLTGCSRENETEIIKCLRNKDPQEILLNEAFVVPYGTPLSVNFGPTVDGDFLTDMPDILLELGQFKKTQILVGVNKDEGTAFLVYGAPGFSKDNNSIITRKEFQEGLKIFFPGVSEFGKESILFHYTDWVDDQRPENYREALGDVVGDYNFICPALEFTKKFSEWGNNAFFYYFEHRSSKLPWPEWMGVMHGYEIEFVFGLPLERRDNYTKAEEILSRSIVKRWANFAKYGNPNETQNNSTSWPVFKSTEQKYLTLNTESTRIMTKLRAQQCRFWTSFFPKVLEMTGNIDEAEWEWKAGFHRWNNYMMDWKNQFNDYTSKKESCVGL

COc1ccc2c3c1O[C@H]1C[C@@H](O)C=C[C@@]31CCN(C)C2 [galanthamine hydrobromide, Galanthamine hydrobromide]
Hemolysate ChE activity ([1]; 1.25 μg/ml added in vitro): 0.96 | Hemolysate ChE activity ([1]; 2.50 μg/ml added in vitro): 0.86 | change of hemolysate cholinesterase activity with increased concentration ([1]; in words): significant reduction | Serum ChE activity ([2]; 1.25 μg/ml added in vitro): 0.98 | Serum ChE activity ([2]; 2.50 μg/ml added in vitro): 0.97 | change of serum cholinesterase activity on addition ([2]; in words): do not show any statistically significant change | elimination half life ([3]; in vivo): over four | absorption from the gut ([3]; in words): absorbed rapidly from the gut | passage of the blood brain barrier ([3]; in words): transverses the blood brain barrier easily | renal elimination ([3]; in words): practically complete renal elimination | selectivity for acetylcholinesterase as opposed to butyrylcholinesterase ([4]; hydrobromide): 50 fold

COc1ccc2c3c1O[C@H]1C[C@@H](O)C=C[C@@]31CCN(C)C2 [galanthamine]
solubility in water [5]: only sparingly soluble | slight nausea, share of cases ([6]; disappearing after about one week of treatment): about 30% | vomiting and dizziness, share of patients ([6]; disappearing after about one week of treatment in most cases): 5-10% | more severe side effects, share of patients ([6]; human, in vivo): 4-6% | Dizziness visual analogue scale, mean [7, 15]: 8.96 | Fatigue visual analogue scale, mean [7, 15]: 26.63 | Memory visual analogue scale, mean [7, 15]: 5.41 | Myalgia visual analogue scale, mean [7, 15]: 14.25 | Sleep visual analogue scale, mean [7, 15]: 17.26 | Work visual analogue scale, mean [7, 15]: 10.22 | Dizziness visual analogue scale, mean [7, 16]: 6.94 | Fatigue visual analogue scale, mean [7, 16]: 20.64 | Memory visual analogue scale, mean [7, 16]: 4.79 | Myalgia visual analogue scale, mean [7, 16]: 11.24 | Sleep visual analogue scale, mean [7, 16]: 15.51 | Work visual analogue scale, mean [7, 16]: 8.21 | Dizziness visual analogue scale, mean [7, 17]: 6.30 | Fatigue visual analogue scale, mean [7, 17]: 17.42 | Memory visual analogue scale, mean [7, 17]: 4.33 | Myalgia visual analogue scale, mean [7, 17]: 12.01 | Sleep visual analogue scale, mean [7, 17]: 11.89 | Work visual analogue scale, mean [7, 17]: 7.40 | Dizziness visual analogue scale, mean [7, 18]: 4.77 | Fatigue visual analogue scale, mean [7, 18]: 17.81 | Memory visual analogue scale, mean [7, 18]: 4.50 | Myalgia visual analogue scale, mean [7, 18]: 10.51 | Sleep visual analogue scale, mean [7, 18]: 10.88 | Work visual analogue scale, mean [7, 18]: 7.34 | Dizziness visual analogue scale, mean [7, 19]: 8.39 | Fatigue visual analogue scale, mean [7, 19]: 28.00 | Memory visual analogue scale, mean [7, 19]: 5.10 | Myalgia visual analogue scale, mean [7, 19]: 16.32 | Sleep visual analogue scale, mean [7, 19]: 19.45 | Work visual analogue scale, mean [7, 19]: 9.21 | galanthamine treated patients changes on the analogue scales that fall above the placebo median ([7]; first two weeks of treatment, across all scales, exact p=0.033): 68.18% | Dizziness visual analogue scale, mean [7, 20]: 9.00 | Fatigue visual analogue scale, mean [7, 20]: 29.76 | Memory visual analogue scale, mean [7, 20]: 5.89 | Myalgia visual analogue scale, mean [7, 20]: 15.95 | Sleep Disturbance visual analogue scale, mean [7, 20]: 17.90 | Work Capacity/Satisfaction visual analogue scale, mean [7, 20]: 11.61 | Dizziness visual analogue scale, mean [7, 21]: 8.79 | Fatigue visual analogue scale, mean [7, 21]: 25.21 | Memory visual analogue scale, mean [7, 21]: 5.62 | Myalgia visual analogue scale, mean [7, 21]: 13.58 | Sleep Disturbance visual analogue scale, mean [7, 21]: 18.42 | Work Capacity/Satisfaction visual analogue scale, mean [7, 21]: 9.64 | Dizziness visual analogue scale, mean [7, 22]: 9.05 | Fatigue visual analogue scale, mean [7, 22]: 29.41 | Memory visual analogue scale, mean [7, 22]: 5.31 | Myalgia visual analogue scale, mean [7, 22]: 17.58 | Sleep Disturbance visual analogue scale, mean [7, 22]: 20.78 | Work Capacity/Satisfaction visual analogue scale, mean [7, 22]: 9.43 | patients transferred by the clinician to the alternative treatment (failed to benefit) [8]: 1/11 | average time per response on a visual search task, mean (standard error) ([9]; 336 h): 5.51 (0.43) | average time per response on a visual search task, mean (standard error) [9, 15]: 6.24 (0.40) | average time per response on a visual search task, mean (standard error) [9, 17]: 5.83 (0.40) | average time per response on a visual search task, mean (standard error) [9, 18]: 5.25 (0.31) | average time per response on a visual search task, mean (standard error) [9, 19]: 6.79 (0.36) | Cognitive Failures Questionnaire, mean (standard error) ([10]; 672 h): 40.94 (3.87) | Cognitive Failures Questionnaire, mean (standard error) [10, 18]: 38.47 (3.71) | Cognitive Failures Questionnaire, mean (standard error) [10, 19]: 47.74 (3.56) | amplitude of auditory brain stem response, depressive patient [11, 23]: dramatically increase of the amplitude | auditory brain stem response potentials, healthy person [11, 23]: potentials do not change | ability to cross the blood-brain barrier ([11]; concluded from change of potentials in the depressed person): must be able to cross the blood-brain barrier | inhibition of acetylcholinesterase in the erythrocytes [12]: 65% | inhibition of butyrylcholinesterase in plasma [13]: no inhibition | time to complete elimination of metabolites and galanthamine ([3]; in vivo): 72 h | duration of an effective concentration ([3]; warranted by elimination half life, probably at least 6 hours): at least 4 hours | liver toxicity or serious side effects [14]: without any reported case of liver toxicity or serious side effects | selectivity for acetylcholinesterase as opposed to butyrylcholinesterase [4]: about 50 fold | in vitro selectivity for acetylcholinesterase opposed the effect on butyrylcholinesterase ([4]; ratio, as reported by Thomsen, Life Sciences 46): 50 to 1
